Measurements published in patent US9937235B2, “Lipidated peptides as anti-obesity agents” (USTAV ORGANICKE CHEMIE A BIOCHEMIE AKADEMIE VED CR, V.V.I, priority 2012, dated 2018).
Where a SMILES comes first, the peptide text is derived from it. Where no end group is shown, it is not given here. [ ]: non-standard residue; d: D form. The star is where a group is joined. Myristoyl = CCCCCCCCCCCCCC(=O)*; Nle = CCCC[C@H](N)C(=O)O; Dap = NC[C@H](N)C(=O)O

T1: rat PrRP receptor (GPR10) in RC-4B/C cells (Rattus norvegicus, UniProt Q64121)
T1 construct: host or cells: RC-4B/C rat pituitary cell line
T1 sequence (Q64121 1-370): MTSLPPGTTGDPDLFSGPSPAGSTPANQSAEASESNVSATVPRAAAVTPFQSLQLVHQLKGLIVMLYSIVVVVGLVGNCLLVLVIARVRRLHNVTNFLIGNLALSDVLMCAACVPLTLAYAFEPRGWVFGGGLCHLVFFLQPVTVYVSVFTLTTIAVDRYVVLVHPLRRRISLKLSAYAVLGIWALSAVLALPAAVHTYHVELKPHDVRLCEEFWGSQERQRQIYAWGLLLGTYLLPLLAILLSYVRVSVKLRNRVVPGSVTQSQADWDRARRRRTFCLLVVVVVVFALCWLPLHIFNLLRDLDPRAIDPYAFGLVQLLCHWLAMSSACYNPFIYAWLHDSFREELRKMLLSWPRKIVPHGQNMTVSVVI

T2: rat PrRP receptor in RC-4B/C cells (rat, UniProt Q64121 1-370)
T2 construct: whole, on cells; also called the rat receptor; GPR10
T2 sequence (looked up): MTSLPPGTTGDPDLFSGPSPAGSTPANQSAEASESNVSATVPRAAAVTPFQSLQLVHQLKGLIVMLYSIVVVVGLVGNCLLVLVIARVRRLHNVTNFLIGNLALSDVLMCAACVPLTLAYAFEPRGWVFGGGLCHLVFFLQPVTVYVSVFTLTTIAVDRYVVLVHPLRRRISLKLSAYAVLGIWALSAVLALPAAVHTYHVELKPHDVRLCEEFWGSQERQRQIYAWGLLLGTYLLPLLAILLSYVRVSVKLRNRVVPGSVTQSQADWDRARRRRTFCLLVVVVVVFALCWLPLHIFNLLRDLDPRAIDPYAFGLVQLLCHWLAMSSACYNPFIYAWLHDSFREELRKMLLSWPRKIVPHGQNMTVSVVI


Legend:
[1] = test system: fasted C57BL/6 mice; experiment: Food intake in fasted mice after ICV administration; type: in vivo; settings: 4 nmol/mouse; for % control: food intake vs saline
Protocol: Male C57BL/6 mice (An Lab, Prague 4) were bred in the accredited animal facility in the Institute of Organic Chemistry and Biochemistry, Czech Academy of Sciences, Prague, at the Institute of Molecular Genetics, Prague 4, at the temperature of 22±2° C. with access to food and water ad libitum. The day/night cycle was 12/12 hours (light turned on at 6:00 am). Animals were treated according to the Animal Protection Act (Act No. 246/1992). The males were fed standard chow diet St-1 (Mlýn Kocanda, Praha, Czech Republic) which contained 66% saccharides, 25% proteins and 9% lipids with a caloric value of 3.4 kcal/g.
The food was withdrawn 17 hours prior to injection of lipidated peptide and free access to water was maintained. The administration of saline, PrRP or lipidated analogs was performed either by SC injection at doses of 1-10 mg/kg (volume 0.2 ml/mouse), or by ICV using infusion pump (cannulae were inserted into the third brain ventricle 4 days before the experiment following the procedure of Maixnerová et al. (Maixnerová et al., 2011)). The single dose of peptide was 4 nmol/mouse (5 μl/mouse).
Fifteen minutes after the lipidated peptide administration, the mice were given pre-weighed food. The food was then weighed every 30 minutes for 5-10 hours. The administration of every dose was performed at least twice and one group of mice consisted of at least 6 mice. The results were presented as % of food intake as compared with the control group injected with saline.
Statistical evaluation was performed using program Graph-Pad Prism Software (San Diego, Calif., USA), and the one-way ANOVA with a subsequent Dunnettovým post-hoc test. The difference in food intake between mice injected with saline and mice injected with the examined peptide were considered statistically significant at P<0.05.

[2] = target: T1, rat PrRP receptor (GPR10) in RC-4B/C cells; experiment: Competitive binding to rat pituitary RC-4B/C cells; settings: ^125I-rat PrRP31, RC-4B/C cells
[3] = test system: fasted C57BL/6 mice; experiment: Food intake in fasted mice after SC administration; type: in vivo, mouse; settings: SC administration, 10 mg/kg; for % control: food intake vs saline
Summary of the method: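 Male C57BL/6 mice, food-deprived 17 h, received saline, PrRP or lipidated analogs either SC at 1-10 mg/kg or ICV into the third ventricle at 4 nmol/mouse.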

[4] = test system: MAPK/ERK1/2 signaling pathway in RC-4B/C cells; experiment: MAPK/ERK1/2 signaling in RC-4B/C cells (Western blot); type: cell-based, rat; settings: 10^−6 mol·l^−1, 5 minute incubation
[5] = target: T2, rat PrRP receptor in RC-4B/C cells; experiment: competition with 125I-rat PrRP31 on RC-4B/C cells; Ki by Cheng-Prusoff
Protocol: The rat pituitary cell line RC-4B/C (ATCC, Manassas, USA) was grown on 24-well plates which had their bottom coated with polyethyleneimine. The cells were grown to the optimal density of 300-450 thousand per well.
Plates were incubated for 60 minutes at room temperature. After incubation, the cells were solubilized in 0.1 mol/l solution of NaOH and the radioactivity bound to the cells was counted using a γ-counter. The experiments were performed in duplicate and repeated at least three times.

| Molecule | food intake ([1]; 45 minutes) | % control ([1]; 45 minutes) | food intake ([1]; 300 minutes) | % control ([1]; 300 minutes) | % of PrRP31 binding [2] | food intake ([3]; 45 minutes) | % control ([3]; 45 minutes) | food intake ([3]; 300 minutes) | % control ([3]; 300 minutes) | ERK signaling [4] | Ki [5] |
| --- | --- | --- | --- | --- | --- | --- | --- | --- | --- | --- | --- |
| CCCC[C@H](NC(=O)[C@H](CO)NC(=O)[C@H](Cc1c[nH]cn1)NC(=O)[C@H](CCC(N)=O)NC(=O)[C@H](Cc1c[nH]cn1)NC(=O)[C@H](C)NC(=O)[C@H](CCCNC(=N)N)NC(=O)[C@@H](N)CN)C(=O)N[C@@H](CCC(=O)O)C(=O)N[C@H](C(=O)N[C@@H](CCCNC(=N)N)C(=O)N[C@H](C(=O)N1CCC[C@H]1C(=O)N[C@@H](CC(=O)O)C(=O)N[C@H](C(=O)N[C@@H](CC(N)=O)C(=O)N1CCC[C@H]1C(=O)N[C@@H](C)C(=O)N[C@@H](Cc1c[nH]c2ccccc12)C(=O)N[C@@H](Cc1ccc(O)cc1)C(=O)N[C@H](C(=O)NCC(=O)N[C@@H](CCCNC(=N)N)C(=O)NCC(=O)N[C@H](C(=O)N[C@@H](CCCNC(=N)N)C(=O)N1CCC[C@H]1C(=O)N[C@H](C(=O)NCC(=O)N[C@@H](CCCNC(=N)N)C(=O)N[C@@H](Cc1ccccc1)C(N)=O)C(C)C)[C@@H](C)CC)[C@@H](C)O)[C@@H](C)CC)[C@@H](C)O)[C@@H](C)O [Analog 1] (H-[Dap]RAHQHS[Nle]ETRTPDINPAWYTGRGIRPVGRF-NH2) | 0.39 g | 70% | 0.71 g | 53% | 132% | 0.38 g | 117% | 1.05 g | 97% | agonist |  |
| [Dap](Myristoyl)RTHRHS[Nle]EIRTPDINPAWYASRGIRPVGRF-NH2 (N-terminus assumed; SMILES CCCCCCCCCCCCCC(=O)NC[C@H](N)C(=O)N[C@@H](CCCNC(=N)N)C(=O)N[C@H](C(=O)N[C@@H](Cc1c[nH]cn1)C(=O)N[C@@H](CCCNC(=N)N)C(=O)N[C@@H](Cc1c[nH]cn1)C(=O)N[C@@H](CO)C(=O)N[C@@H](CCCC)C(=O)N[C@@H](CCC(=O)O)C(=O)N[C@H](C(=O)N[C@@H](CCCNC(=N)N)C(=O)N[C@H](C(=O)N1CCC[C@H]1C(=O)N[C@@H](CC(=O)O)C(=O)N[C@H](C(=O)N[C@@H](CC(N)=O)C(=O)N1CCC[C@H]1C(=O)N[C@@H](C)C(=O)N[C@@H](Cc1c[nH]c2ccccc12)C(=O)N[C@@H](Cc1ccc(O)cc1)C(=O)N[C@@H](C)C(=O)N[C@@H](CO)C(=O)N[C@@H](CCCNC(=N)N)C(=O)NCC(=O)N[C@H](C(=O)N[C@@H](CCCNC(=N)N)C(=O)N1CCC[C@H]1C(=O)N[C@H](C(=O)NCC(=O)N[C@@H](CCCNC(=N)N)C(=O)N[C@@H](Cc1ccccc1)C(N)=O)C(C)C)[C@@H](C)CC)[C@@H](C)CC)[C@@H](C)O)[C@@H](C)CC)[C@@H](C)O, analog of human PrRP31) [analog no. 12] |  |  |  |  |  |  |  |  |  |  | 4.13 nM |
